Measurements as given in patent US20060128724A1, “Pyrazole-substituted aminoheteroaryl compounds as protein kinase inhibitors” (AGOURON PHARMACEUTICALS, INC., priority 2004, published 2006).

Biological target: T1, c-MET (HGFR) (Homo sapiens, UniProt P08581)
T1 construct: purchased Upstate 14-526
Experiment: HGFR Continuous-Coupled Spectrophotometric Assay
Format: biochemical
Conditions: Met-2 substrate peptide, 50 nM HGFR, 37° C.; read-out: c-Met Ki
Source text: The following in vitro assay may be used to determine the level of activity and effect of the different compounds of the present invention on one or more of the PKs. Similar assays can be designed along the same lines for any PK using techniques well known in the art.
The general procedure is as follows: compounds and kinase assay reagents are introduced into test wells. The assay is initiated by addition of the kinase enzyme. Enzyme inhibitors reduce the measured activity of the enzyme.
In the continuous-coupled spectrophotometric assay the time-dependent production of ADP by the kinase is determined by analysis of the rate of consumption of NADH by measurement of the decrease in absorbance at 340 nm. As the PK produces ADP it is re-converted to ATP by reaction with phosphoenol pyruvate and pyruvate kinase. Pyruvate is also produced in this reaction. Pyruvate is subsequently converted to lactate by reaction with lactate dehydrogenase, which simultaneously converts NADH to NAD.
HGFR Continuous-Coupled Spectrophotometric Assay
This assay analyzes the tyrosine kinase activity of HGFR on the Met-2 substrate peptide, a peptide derived from the activation loop of the HGFR.
• 1. […] Dissolve up in 200 mM HEPES, pH 7.5 at 10 mM stock. • 3. 1 M PEP (phospho-enol-pyruvate) in 200 mM HEPES, pH 7.5 • 4. 100 mM NADH (B-Nicotinamide Adenine Dinucleotide, Reduced Form) in 200 mM HEPES, pH 7.5 • 5. 4 M MgCl2 (Magnesium Chloride) in ddH2O • 6. 1 M DTT (Dithiothreitol) in 200 mM HEPES, pH 7.5 • 7. 15 Units/mL LDH (Lactic Dehydrogenase) • 8. 15 Units/mL PK (Pyruvate Kinase) • 9. 5M NaCl dissolved in ddH2O • 10. Tween-20 (Protein Grade) 10% Solution • 11. 1 M HEPES buffer: (N-[2-Hydroxethyl]piperazine-N-[2-ethanesulfonic acid]) Sodium Salt. Dissolve in ddH2O, adjust pH to 7.5, bring volume to 1 L. Filter at 0.1 μm. • 12. […] 100% DMSO (SIGMA) • 14. […] Beckman DU-650 w/micro cell holders • 18. Beckman 4-position micro cell cuvette Procedure:
Prep Dilution Buffer (DB) for Enzyme (For 30 mL prep) • 1. DB final concentration is 2 mM DTT, 25 mM NaCl2, 5 mM MgCl2, 0.01% Tween-20, and 50 mM HEPES buffer, pH 7.5. • 2. Make up 50 mM HEPES by adding 1.5 mL 1 M HEPES into 28.1 mL of ddH2O. Add rest of the reagents. Into 50 mL conical vial, add 60 μL of 1M DTT, 150 μL 5M NaCl2, 150 μL 1M MgCl2, and 30 μL of 10% Tween-20 to give total volume of 30 mL. • 3. […] Aliquot out DB at 1 mL/tube and label tubes as “DB HGFR” • 5. Note: This can be prepared and stored ahead of time. • 6. Freeze un-used aliquots in microcentrifuge tubes at −20° C. freezer. […] For compound dilution plate, add 4 μL of 10 mM stock into column 1 of plate, and bring volume to 100 μL with 100% DMSO. • 2. Set up the Precision 2000 dilution method. A final concentration of 200 μM compound in 50% DMSO, 100 mM HEPES (1:2 serial dilution). Prep Coupled Enzymatic Buffer:
1. Final concentration in assay:
• 2. For a 10 mL reaction buffer add 10 μL of 1M PEP, 33 μL of 100 mM NADH, 50 μL of 4M MgCl2, 20 μL of 1M DTT, 6 μL of 500 mM ATP, and 500 μL of 10 mM Met-2 peptide into 100 mM HEPES buffer pH 7.5 and vortex/mix. • 3. Add coupling enzymes, LDH and PK, into reaction mix. Mix by gentle inversion. Running Samples
1. Spectrophotometer settings:
• 2. Add 85 μL of CE reaction mix into each well of assay plate. • 3. Add 5 μL of diluted compound into a well of the assay plate. • 4. Add 5 μL of 50% DMSO for negative control into last column of assay plate. • 5. Mix with multi-channel pipettor or orbital shaker. • 6. Pre-incubate for 10 minutes at 37° C. • 7. Add 10 μL of 500 nM HGFR to each well of assay plate; the final HGFR concentration is 50 nM in a total final volume of 100 μL. • 8. Measure activity for 10 minutes at λ=340 nm and 37° C.

T1 sequence (P08581 974-1390 limits assumed): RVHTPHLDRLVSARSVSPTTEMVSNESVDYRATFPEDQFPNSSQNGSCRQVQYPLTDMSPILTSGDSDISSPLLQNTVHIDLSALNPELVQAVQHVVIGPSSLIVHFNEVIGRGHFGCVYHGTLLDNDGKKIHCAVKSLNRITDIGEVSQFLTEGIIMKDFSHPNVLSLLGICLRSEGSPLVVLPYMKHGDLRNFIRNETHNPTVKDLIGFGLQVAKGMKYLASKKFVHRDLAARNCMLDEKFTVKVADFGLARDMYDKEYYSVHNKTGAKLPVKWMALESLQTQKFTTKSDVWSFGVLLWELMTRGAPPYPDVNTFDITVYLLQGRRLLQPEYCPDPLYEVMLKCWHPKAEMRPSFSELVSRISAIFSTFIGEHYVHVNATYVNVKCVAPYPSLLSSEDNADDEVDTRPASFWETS

CC(C)Cn1cc(-c2cnc(N)c(OC(C)c3c(Cl)ccc(F)c3Cl)c2)cn1 (stereo not shown) [Example 22, 3-[1-(2,6-Dichloro-3-fluoro-phenyl)-ethoxy]-5-(1-isobutyl-1H-pyrazol-4-yl)-pyridin-2-ylamine]
Ki: 0.1 µM

CC(Oc1cc(-c2cnn(CC(C)(C)C)c2)cnc1N)c1c(Cl)ccc(F)c1Cl (stereo not shown) [Example 23, 3-[1-(2,6-Dichloro-3-fluoro-phenyl)-ethoxy]-5-[1-(2,2-dimethyl-propyl)-1H-pyrazol-4-yl]-pyridin-2-ylamine]
Ki: 0.12 µM

CCN(CC)CCNC(=O)C(C)(C)n1cc(-c2cnc(N)c(OC(C)c3c(Cl)ccc(F)c3Cl)c2)cn1 (stereo not shown) [Example 24, 2-(4-{6-Amino-5-[1-(2,6-dichloro-3-fluoro-phenyl)-ethoxy]-pyridin-3-yl}pyrazol-1-yl)-N-(2-diethylamino-ethyl)-isobutyramide]
Ki: 0.22 µM

CC(Oc1cc(-c2cnn(C3CCOC3)c2)cnc1N)c1c(Cl)ccc(F)c1Cl (stereo not shown) [Example 27, 3-[1-(2,6-Dichloro-3-fluoro-phenyl)-ethoxy]-5-[1-(tetrahydro-furan-3-yl)-1H-pyrazol-4-yl]-pyridin-2-ylamine]
Ki: 0.04 µM

CC(Oc1cc(-c2cnn(CC3CC4CCC3O4)c2)cnc1N)c1c(Cl)ccc(F)c1Cl (stereo not shown) [Example 28, 3-[1-(2,6-Dichloro-3-fluoro-phenyl)-ethoxy]-5-[1-(7-oxa-bicyclo[2.2.1]hept-2-ylmethyl)-1H-pyrazol-4-yl]-pyridin-2-ylamine]
Ki: 0.06 µM

CC(Oc1cc(-c2cnn(C(C)(C)C(=O)NCCCO)c2)cnc1N)c1c(Cl)ccc(F)c1Cl (stereo not shown) [Example 32, 2-(4-{6-Amino-5-[1-(2,6-dichloro-3-fluoro-phenyl)-ethoxy]-pyridin-3-yl}-pyrazol-1-yl)-N-(3-hydroxy-propyl)-isobutyramide]
Ki: 0.07 µM

Cc1nn(C(C)(C)C(=O)O)cc1-c1cnc(N)c(OC(C)c2c(Cl)ccc(F)c2Cl)c1 (stereo not shown) [Example 33, 2-(4-{6-Amino-5-[1-(2,6-dichloro-3-fluoro-phenyl)-ethoxy]-pyridin-3-yl}-3-methyl-pyrazol-1-yl)-2-methyl-propionic acid]
Ki: 0.13 µM

COCCNC(=O)C(C)(C)n1cc(-c2cnc(N)c(OC(C)c3c(Cl)ccc(F)c3Cl)c2)cn1 (stereo not shown) [Example 34, 2-(4-{6-Amino-5-[1-(2,6-dichloro-3-fluoro-phenyl)-ethoxy]-pyridin-3-yl}-pyrazol-1-yl)-N-(2-methoxy-ethyl)-isobutyramide]
Ki: 0.09 µM

CC(Oc1cc(-c2cnn(C(C)(C)C(=O)NCCO)c2)cnc1N)c1c(Cl)ccc(F)c1Cl (stereo not shown) [Example 35, 2-(4-{6-Amino-5-[1-(2,6-dichloro-3-fluoro-phenyl)-ethoxy]-pyridin-3-yl}-pyrazol-1-yl)-N-(2-hydroxy-ethyl)-isobutyramide]
Ki: 0.06 µM

Cc1nn(C(C)(C)C(=O)NCCCN(C)C)cc1-c1cnc(N)c(OC(C)c2c(Cl)ccc(F)c2Cl)c1 (stereo not shown) [Example 36, 2-(4-{6-Amino-5-[1-(2,6-dichloro-3-fluoro-phenyl)-ethoxy]-pyridin-3-yl}-3-methyl-pyrazol-1-yl)-N-(3-dimethylamino-propyl)-isobutyramide]
Ki: 0.09 µM

Cc1nn(C(C)(C)C(=O)NCCN2CCCC2)cc1-c1cnc(N)c(OC(C)c2c(Cl)ccc(F)c2Cl)c1 (stereo not shown) [Example 37, 2-(4-{6-Amino-5-[1-(2,6-dichloro-3-fluoro-phenyl)-ethoxy]-pyridin-3-yl}3-methyl-pyrazol-1-yl)-N-(2-pyrrolidin-1-yl-ethyl)-isobutyramide]
Ki: 0.07 µM

CC(Oc1cc(-c2cnn(C3CCN(C(C)C)CC3)c2)cnc1N)c1c(Cl)ccc(F)c1Cl (stereo not shown) [Example 38, 3-[1-(2,6-Dichloro-3-fluoro-phenyl)-ethoxy]-5-[1-(1-isopropyl-piperidin-4-yl)-1H-pyrazol-4-yl]-pyridin-2-ylamine]
Ki: 0.01 µM

CC(Oc1cc(-c2cnn(C3CCN(C)CC3)c2)cnc1N)c1c(Cl)ccc(F)c1Cl (stereo not shown) [Example 39, 3-[1-(2,6-Dichloro-3-fluoro-phenyl)-ethoxy]-5-[1-(1-methyl-piperidin-4-yl)-1H-pyrazol-4-yl]-pyridin-2-ylamine]
Ki: 0.01 µM

CC(Oc1cc(-c2cnn(C3CCN(C(=O)CO)CC3)c2)cnc1N)c1c(Cl)ccc(F)c1Cl (stereo not shown) [Example 40, 1-[4-(4-{6-Amino-5-[1-(2,6-dichloro-3-fluoro-phenyl)-ethoxy]-pyridin-3-yl}-pyrazol-1-yl)-piperidin-1-yl]-2-hydroxy-ethanone]
Ki: 0.01 µM

CC(=O)N1CCC(n2cc(-c3cnc(N)c(OC(C)c4c(Cl)ccc(F)c4Cl)c3)cn2)CC1 (stereo not shown) [Example 41, 1-[4-(4-{6-Amino-5-[1-(2,6-dichloro-3-fluoro-phenyl)-ethoxy]-pyridin-3-yl}-pyrazol 1-yl)-piperidin-1-yl]-ethanone]
Ki: 0.01 µM

CC(Oc1cc(-c2cnn(C3CCN(CC#N)CC3)c2)cnc1N)c1c(Cl)ccc(F)c1Cl (stereo not shown) [Example 42, [4-(4-{6-Amino-5-[1-(2,6-dichloro-3-fluoro-phenyl)-ethoxy]-pyridin-3-yl}-pyrazol-1-yl)-piperidin-1-yl]-acetonitrile]
Ki: 0.02 µM

CCN1CCC(n2cc(-c3cnc(N)c(OC(C)c4c(Cl)ccc(F)c4Cl)c3)cn2)CC1 (stereo not shown) [Example 43, 3-[1-(2,6-Dichloro-3-fluoro-phenyl)-ethoxy]-5-[1-(1-ethyl-piperidin-4-yl)-1H-pyrazol-4-yl]-pyridin-2-ylamine]
Ki: 0.01 µM

CC(Oc1cc(-c2cnn(C3CCN(C(=O)CN(C)C)CC3)c2)cnc1N)c1c(Cl)ccc(F)c1Cl (stereo not shown) [Example 44, 1-[4-(4-{6-Amino-5-[1-(2,6-dichloro-3-fluoro-phenyl)-ethoxy]-pyridin-3-yl}-pyrazol-1-yl)-piperidin-1-yl]-2-dimethylamino-ethanone]
Ki: 0.01 µM

CC(Oc1cc(-c2cnn(C3CCN(CC4CC4)CC3)c2)cnc1N)c1c(Cl)ccc(F)c1Cl (stereo not shown) [Example 45, 5-[1-(1-Cyclopropylmethyl-piperidin-4-yl)-1H-pyrazol-4-yl]-3-[1-(2,6-dichloro-3-fluoro-phenyl)-ethoxy]-pyridin-2-ylamine]
Ki: 0.01 µM

C[C@@H](Oc1cc(-c2cnn(C3CCN(C)CC3)c2)cnc1N)c1c(Cl)ccc(F)c1Cl [Example 46, 3-[(R)-1-(2,6-Dichloro-3-fluoro-phenyl)-ethoxy]-5-[1-(1-methyl-piperidin-4-yl)-1H-pyrazol-4-yl]-pyridin-2-ylamine]
Ki: 0.01 µM

C[C@@H](Oc1cc(-c2cnn(C3CCN(C(=O)CO)CC3)c2)cnc1N)c1c(Cl)ccc(F)c1Cl [Example 47, 1-[4-(4-{6-Amino-5-[(R)-1-(2,6-dichloro-3-fluoro-phenyl)-ethoxy]-pyridin-3-yl}-pyrazol-1-yl)-piperidin-1-yl]-2-hydroxy-ethanone]
Ki: 0.004 µM

CC(Oc1cc(-c2cnn(C3CCC3)c2)cnc1N)c1c(Cl)ccc(F)c1Cl (stereo not shown) [Example 49, 5-(1-Cyclobutyl-1H-pyrazol-4-yl)-3-[1-(2,6-dichloro-3-fluoro-phenyl)-ethoxy]-pyridin-2-ylamine]
Ki: 0.02 µM
